Results published in patent US20050187141A1, “Control of gene induced by oxidated lipids in human artery wall cells” (The Regents of the University of California, priority 2000, published 2005).

What was measured:
lesions = assay: Lesion regression in 10 month old apo E deficient mice; type: in vivo; conditions: 1.0 mg/ml in drinking water for five weeks after 10 months on chow, FIG. 10
Procedure: Apo E deficient mice were purchased from Jackson Laboratories (Bar Harbor, Me.). The mice were maintained on a chow diet containing 4% fat, obtained from Ralston-Purina (St. Louis, Mo.) for 10 months at which time one group (n=5) were sacrificed and lesions determined. A second group (n=8) received 1.0 mg/ml of synthetic 1,2-ditetradecanoyl-sn-glycero-3-phosphorylcholine (DGP, approximately 99% pure, catalog # P 7331, Sigma Chemical Company, St. Louis, Mo.) in their drinking water for another five weeks. […] After 5 weeks of treatment, the animals were sacrificed. The hearts and blood vessels from the three groups were harvested and processed as previously reported (Qiao 1994) to determine lesion area.

[1] = system: Human artery wall cell cocultures; assay: HDL protective capacity and LDL susceptibility to oxidation in human artery wall cell cocultures; type: in vivo, apo E deficient mice; conditions: 18 hrs, FIG. 8
Procedure: Plasma fractions obtained as described above were pooled in the region containing LDL and the region containing HDL. Human artery wall cell cocultures were prepared as reported previously (Navab et al. (1997) J Clin Invest., 99: 2005-2019) and used to determine the extent of LDL oxidation as judged by the level of monocyte chemotactic activity generated by oxidized LDL. As the assay controls, to some wells containing the artery wall cocultures was added a standard human LDL (h LDL) at 200 μg LDL protein per ml. To other wells was added h LDL+human HDL (h HDL) at 350 μg HDL protein per ml. The protective capacity of HDL obtained from apo E deficient mice was then tested. To some wells was added standard human LDL (Std. h LDL) at 200 μg LDL protein per ml plus 50 μg of HDL cholesterol obtained from the mice that had received drinking water without additions (Std. h LDL+Cont. E null HDL). To other wells in addition to human LDL, HDL (at 50 μg cholesterol/ml) obtained from mice given drinking water containing 2.0 mg per ml of 1,2-dimyristoyl-sn-glycero-3-phosphocholine (1,2-ditetradecanoyl-sn-glycero-3-phosphocholine) (Std. h LDL+DGP HDL) was added and incubated for 18 hrs. LDL susceptibility to oxidation was additionally determined. […] The values are mean±SD of the number of monocytes counted in 9 high power fields from quadruple wells. […]

[2] = Lipoprotein cholesterol levels (FPLC) in apo E deficient mice; type: in vivo; conditions: 2.0 mg/ml in drinking water, 24 and 48 hrs, FIG. 6
Procedure: Apo E deficient mice were purchased from Jackson Laboratories (Bar Harbor, Me.). The mice were 5 weeks old at the time of the experiments. The animals were maintained on a chow diet containing 4% fat, obtained from Ralston-Purina (St. Louis, Mo.). Synthetic 1,2-ditetradecanoyl-sn-glycero-3-phosphocholine (shown in the figure as circles at 24 h and as triangles at 48 h and abbreviated as DGP; 99+% purity, catalog # P 2663, Lot # 17H8362, Sigma Chemical Company, St. Louis Mo.) was added at 2.0 mg/ml to the drinking water of one group of apo E deficient mice (n=5). […] After 24 and 48 hrs blood was collected from the retroorbital sinus under mild anesthesia into heparinized tubes under an approved protocol of the UCLA Animal Research Committee. Plasma was separated and was fractionated using fast protein liquid chromatography (FPLC). Cholesterol content of the fractions was determined using a kit (Infinity reagent) obtained from Sigma Chemical Company.

fatty streak lesions = assay: Fatty streak lesions in apo E deficient mice; type: in vivo; conditions: 1.0 mg/ml in drinking water, 5 weeks, FIG. 9
Procedure: Apo E deficient mice were purchased from Jackson Laboratories (Bar Harbor, Me.). The mice were 5 weeks old at the time of the experiments. The animals were maintained on a chow diet containing 4% fat, obtained from Ralston-Purina (St. Louis, Mo.). One group (n=10) was given in their drinking water 1.0 mg/ml of 1,2-dimyristoyl-sn-glycero-3-phosphocholine (1,2-ditetradecanoyl-sn-glycero-3-phosphocholine) (shown as DGP on the figure, approximately 99% pure, catalog # P 7331, Sigma Chemical Company, St. Louis, Mo.). […] After 5 weeks of treatment, the animals were sacrificed and hearts were harvested and processed according to the methods described by Qiao et al. (1994) Arterioscl Thromb, 14: 1480-1497). In brief, 10 μm thick cryosections were stained with Oil red 0 and hematoxylin and counterstained with fast green and examined by light microscopy for the identification of atheromatous lesions. Lesion size was measured using a 1.0 cm optical grid with 20×20 grid lines. Under 10× magnification, each square corresponded to 1/400 mm^2 (or 2500 μm^2). A square with lipophilic stain was counted as lesion if the visually observed stain covered at least 1/8th of the square.

paraoxonase-1 (PON1) = assay: Paraoxonase activity of plasma fractions of apo E deficient mice; type: in vivo; conditions: 2.0 mg/ml in drinking water, FIG. 7
Procedure: Plasma fractions obtained as described in above were analyzed for paraoxonase activity using paraoxon a substrate as reported by Watson et al. (1995) J Clin Invest., 96: 2882-2891). The control samples are shown as diamonds in the figure.

[3] = system: human aortic endothelial cells; assay: Monocyte adhesion assay with supernatants of Ox-PAPC treated HAECs; type: cell-based; conditions: oligonucleotide 100 nM, 18 h, then Ox-PAPC 50 μg/ml 4 h, FIG. 4
Procedure: (§1) Human aortic endothelial cells were transfected with either ‘antisense’ or ‘sense’ phosphorothioate oligonucleotides (100 nM) to human MKP-1. Eighteen hours later, control and transfected cells were either left untreated or treated with Ox-PAPC (50 μg/ml) for an additional four hours. Following the treatments, cell supernatants were collected and analyzed in a monocyte adhesion assay.

[4] = system: human aortic endothelial cells; assay: Monocyte chemotactic activity of supernatants of Ox-PAPC treated HAECs; type: cell-based; conditions: oligonucleotide 100 nM, 18 h, then Ox-PAPC 50 μg/ml 4 h, FIG. 5A-5C
Procedure: as §1, with “for” for “in a”, “chemotactic activity.” for “adhesion assay.”

human MKP-1 = assay: Western blot of MKP-1 protein in Ox-PAPC treated HAECs after oligonucleotide transfection; type: cell-based; conditions: oligonucleotide 100 nM, 18 h, then Ox-PAPC 50 μg/ml 4 h, FIG. 3A, 3B
Procedure: HAECs were transfected with either ‘antisense’ or ‘sense’ phosphorothioate oligonucleotides (100 nM) to human MKP-1. Eighteen hours later, control and transfected cells were either left untreated or treated with Ox-PAPC (50 μg/ml) for an additional four hours.

influenza A = conditions: injected, mice; cited from earlier work

With `CCCCCCCCCCCCCC(=O)OC[C@H](COP(=O)([O-])OCC[N+](C)(C)C)OC(=O)CCCCCCCCCCCCC` [1,2-dimyristoyl-sn-glycero-3-phosphocholine] the lesion area change (lesions) was “dramatic lesion regression”, the “HDL protective capacity (protecting LDL against oxidation)” value ([1]; HDL from mice given 2.0 mg per ml in drinking water, 50 μg cholesterol/ml) was “more effective in protecting LDL against oxidation” and the “LDL susceptibility to oxidation” value ([1]; LDL from mice given 2.0 mg per ml in drinking water, 100 μg LDL cholesterol per ml) was “more resistant to oxidation by artery walls”. The “high density lipoprotein (HDL) levels” value [2] was “dramatic increase”, the “very low density lipoproteins (VLDL) or low density lipoproteins (LDL)” value [2] was “without a significant change” and the reduction in atherosclerosis (fatty streak lesions) was 84.1%. The “content of paraoxonase-1 (PON1) associated with HDL” value (paraoxonase-1 (PON1)) was “dramatic increase”.

With “antisense oligonucleotides: antisense phosphorothioate oligonucleotide to human MKP-1; 5′-GGAACTCAGTGGAACTCAGG-3′ (SEQ ID NO:2) (antisense GGAACTCAGTGGAACTCAGG; all phosphorothioate, sugars by position and methylation of C not given here)” the “Ox-PAPC induction of monocyte adherence” value [3] was “did not promote monocyte adhesion”, the “monocyte chemotactic activity / monocyte chemotaxis” value [4] was “did not promote monocyte chemotaxis” and the “Ox-PAPC-induced MKP-1 protein expression” value (human MKP-1) was “prevent the accumulation of MKP-1 protein”.

In the case of “apo A-I: apo A-I, injected in mice with influenza A in a copending application”, the “signs and symptoms of influenza A” value (influenza A) is listed as “greatly ameliorated”.
